Experiments:
E. coli GS = E. coli GS (Escherichia coli, UniProt P04425); conditions: cited from earlier work
E. coli γ-GCS = E. coli γ-GCS (Escherichia coli, UniProt P0A6W9); conditions: cited from earlier work
Human GS = target: T1, Human GS (Homo sapiens, UniProt P48637); conditions: cited from earlier work
T1 sequence (P48637 1-474): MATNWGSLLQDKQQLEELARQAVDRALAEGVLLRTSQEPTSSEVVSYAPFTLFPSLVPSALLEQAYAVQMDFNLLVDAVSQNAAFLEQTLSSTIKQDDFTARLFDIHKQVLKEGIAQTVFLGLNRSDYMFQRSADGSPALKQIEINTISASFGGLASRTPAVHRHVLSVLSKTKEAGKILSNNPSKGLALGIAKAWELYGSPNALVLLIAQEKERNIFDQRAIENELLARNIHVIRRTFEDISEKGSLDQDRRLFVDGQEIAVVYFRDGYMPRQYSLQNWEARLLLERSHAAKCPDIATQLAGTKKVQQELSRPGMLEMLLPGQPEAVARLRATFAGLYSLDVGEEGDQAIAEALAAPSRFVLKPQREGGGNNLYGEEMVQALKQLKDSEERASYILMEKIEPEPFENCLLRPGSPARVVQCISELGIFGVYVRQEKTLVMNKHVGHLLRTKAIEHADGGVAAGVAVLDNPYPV

E. faecalis γ-GCS-GS [1] = target: T2, E. faecalis γ-GCS-GS (Enterococcus faecalis, UniProt Q82ZG8); test: γ-GCS activity of E. faecalis γ-GCS-GS; conditions: substrate Km, γ-GCS activity
T2 sequence (Q82ZG8 whole entry): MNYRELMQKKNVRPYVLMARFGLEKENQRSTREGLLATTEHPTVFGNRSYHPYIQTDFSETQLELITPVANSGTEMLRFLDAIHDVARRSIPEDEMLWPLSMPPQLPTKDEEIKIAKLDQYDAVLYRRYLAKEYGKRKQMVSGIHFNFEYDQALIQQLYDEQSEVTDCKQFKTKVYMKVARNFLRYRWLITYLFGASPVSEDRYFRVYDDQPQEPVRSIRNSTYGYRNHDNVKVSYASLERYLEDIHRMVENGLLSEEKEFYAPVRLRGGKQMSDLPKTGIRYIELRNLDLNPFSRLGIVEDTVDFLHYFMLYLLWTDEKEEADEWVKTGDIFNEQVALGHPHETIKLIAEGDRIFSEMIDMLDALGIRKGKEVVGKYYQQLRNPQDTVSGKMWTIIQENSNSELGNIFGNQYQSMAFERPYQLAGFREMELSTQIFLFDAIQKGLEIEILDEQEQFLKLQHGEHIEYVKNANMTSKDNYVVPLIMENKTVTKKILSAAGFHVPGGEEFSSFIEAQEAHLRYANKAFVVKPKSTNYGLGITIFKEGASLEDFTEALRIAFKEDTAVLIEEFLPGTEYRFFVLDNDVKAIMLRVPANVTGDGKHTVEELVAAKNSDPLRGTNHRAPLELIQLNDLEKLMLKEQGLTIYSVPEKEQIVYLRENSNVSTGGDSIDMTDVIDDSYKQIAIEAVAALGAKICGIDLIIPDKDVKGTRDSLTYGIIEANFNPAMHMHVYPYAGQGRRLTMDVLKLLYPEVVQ

Rat GS = target: T3, Rat GS (Rattus norvegicus, UniProt P46413); conditions: cited from earlier work
T3 sequence (P46413 1-474): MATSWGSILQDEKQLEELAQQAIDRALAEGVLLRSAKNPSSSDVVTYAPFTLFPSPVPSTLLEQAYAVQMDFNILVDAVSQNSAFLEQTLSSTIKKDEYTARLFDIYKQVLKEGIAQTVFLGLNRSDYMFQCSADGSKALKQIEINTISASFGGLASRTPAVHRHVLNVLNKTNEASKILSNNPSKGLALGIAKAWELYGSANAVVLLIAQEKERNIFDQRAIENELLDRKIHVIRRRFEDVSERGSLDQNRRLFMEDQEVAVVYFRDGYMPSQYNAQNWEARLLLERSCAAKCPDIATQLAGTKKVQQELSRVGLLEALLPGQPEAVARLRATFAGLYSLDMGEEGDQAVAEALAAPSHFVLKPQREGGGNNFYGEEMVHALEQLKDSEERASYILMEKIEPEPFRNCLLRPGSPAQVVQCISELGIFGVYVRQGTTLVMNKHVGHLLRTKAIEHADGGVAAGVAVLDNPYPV

E. faecalis γ-GCS-GS [2] = target: T2, E. faecalis γ-GCS-GS; test: GS activity of E. faecalis γ-GCS-GS; conditions: substrate Km, GS activity

E. coli γ-GCS, sequence (P0A6W9 whole entry): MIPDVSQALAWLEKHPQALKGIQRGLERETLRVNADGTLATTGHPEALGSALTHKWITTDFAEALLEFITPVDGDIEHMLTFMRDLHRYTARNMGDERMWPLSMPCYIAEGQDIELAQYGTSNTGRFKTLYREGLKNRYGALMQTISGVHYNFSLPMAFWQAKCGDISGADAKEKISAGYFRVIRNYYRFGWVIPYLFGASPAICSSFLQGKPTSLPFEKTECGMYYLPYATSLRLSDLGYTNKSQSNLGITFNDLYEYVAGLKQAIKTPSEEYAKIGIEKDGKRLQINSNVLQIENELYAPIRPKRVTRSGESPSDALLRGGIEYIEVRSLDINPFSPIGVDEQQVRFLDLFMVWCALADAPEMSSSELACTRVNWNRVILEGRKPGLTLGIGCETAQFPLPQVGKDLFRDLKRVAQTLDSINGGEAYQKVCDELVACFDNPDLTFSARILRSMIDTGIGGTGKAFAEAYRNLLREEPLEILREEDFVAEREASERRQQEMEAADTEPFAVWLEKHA
E. coli GS, sequence (P04425 whole entry): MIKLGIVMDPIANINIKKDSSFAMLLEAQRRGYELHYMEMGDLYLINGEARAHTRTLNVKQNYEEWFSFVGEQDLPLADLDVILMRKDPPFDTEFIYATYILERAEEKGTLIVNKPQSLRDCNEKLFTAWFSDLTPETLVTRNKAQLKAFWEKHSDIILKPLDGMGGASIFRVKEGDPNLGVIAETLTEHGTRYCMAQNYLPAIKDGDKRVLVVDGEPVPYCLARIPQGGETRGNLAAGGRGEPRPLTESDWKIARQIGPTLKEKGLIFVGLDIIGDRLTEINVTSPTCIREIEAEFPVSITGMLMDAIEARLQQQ

Nc1ncnc2c1ncn2[C@@H]1O[C@H](COP(=O)(O)OP(=O)(O)OP(=O)(O)O)[C@@H](O)[C@H]1O [ATP]
Vmax (E. coli GS): 650 units/mg | Km (E. coli GS; substrate Km): 1.8 mM | Km (E. coli γ-GCS; substrate Km): 62 µM | Vmax (E. coli γ-GCS; unit = 1 μmol product per hour): ~3000 units/mg | Vmax (Human GS): 361 ± 84 units/mg | Km (Human GS; substrate Km): 220 ± 30 µM | Km (E. faecalis γ-GCS-GS [1]): 2.3 ± 0.1 mM | Vmax (Rat GS): 678 units/mg | Km (Rat GS; substrate Km): 37 µM | Km (E. faecalis γ-GCS-GS [2]): 179 ± 5 µM
